Experimental data: PubChem BioAssay AID220 (DTP/NCI, 2004)
Several values for one entry are separate records, joined by “and”; a condition that tells them apart may be missing. Equal values may be shown once. Records with an inconclusive call do not appear.

System: CD8F1 mice, subcutaneous mammary adenocarcinoma, T/C%
Assay: NCI In Vivo Anticancer Drug Screen. Data for tumor model Mammary Adenocarcinoma CD8F1 (subcutaneous) in CD8F1
Settings: higher = larger tumour
Description: The antitumor activity of compounds was measured in mice bearing transplantable tumors. Survival or tumor size were measured and the results are expressed as the measurement made in the treated group (T) divided by the measurement made in the vehicle treated control group (C). The tumor model used in this assay is Mammary Adenocarcinoma CD8F1 (subcutaneous) in CD8F1

[1] = endpoint: median tumor weight (est.), dose: 25.0 mg/kg/injection, schedule: Q07DX005 (ip), vehicle: saline
[2] = endpoint: median tumor weight change, dose: 62.5 mg/kg/injection, schedule: Q01DX001 (ip), vehicle: saline with Tween-80
[3] = endpoint: median tumor weight (est.), dose: 1.56 mg/kg/injection, schedule: Q07DX005 (ip), vehicle: saline with Tween-80
[4] = endpoint: median tumor weight (est.), dose: 3.12 mg/kg/injection, schedule: Q07DX005 (ip), vehicle: saline with Tween-80
[5] = endpoint: median tumor weight (est.), dose: 6.25 mg/kg/injection, schedule: Q07DX005 (ip), vehicle: saline with Tween-80

## C1CN(P2(N3CC3)=NP(N3CC3)(N3CC3)=NP(N3CC3)(N3CC3)=N2)CCO1 (stereo not given)
endpoint: median tumor weight (est.), dose: 6.25 mg/kg/injection, schedule: Q07DX005 (ip), vehicle: saline
  T/C: 39 % of control
endpoint: median tumor weight (est.), dose: 12.5 mg/kg/injection, schedule: Q07DX005 (ip), vehicle: saline
  T/C: 44 % of control
[1]
  T/C: 6 % of control

## O=c1cc[nH]c(=O)o1
endpoint: mean tumor weight, dose: 5.0 mg/kg/injection, schedule: Q04DX008 (ip), vehicle: water
  T/C: 75 % of control
endpoint: mean tumor weight, dose: 10.0 mg/kg/injection, schedule: Q04DX008 (ip), vehicle: water
  T/C: 109 % of control
endpoint: mean tumor weight, dose: 20.0 mg/kg/injection, schedule: Q04DX008 (ip), vehicle: water
  T/C: 70 % of control
endpoint: mean tumor weight, dose: 25.0 mg/kg/injection, schedule: Q07DX005 (ip), vehicle: saline
  T/C: 112 % of control
endpoint: mean tumor weight, dose: 25.0 mg/kg/injection, schedule: Q07DX007 (ip), vehicle: saline
  T/C: 152 % of control
endpoint: mean tumor weight, dose: 50.0 mg/kg/injection, schedule: Q07DX005 (ip), vehicle: saline
  T/C: 54 % of control
endpoint: mean tumor weight, dose: 50.0 mg/kg/injection, schedule: Q07DX007 (ip), vehicle: saline
  T/C: 87 % of control
endpoint: mean tumor weight, dose: 75.0 mg/kg/injection, schedule: Q07DX007 (ip), vehicle: saline
  T/C: 46 % of control
endpoint: median tumor weight (est.), dose: 12.2 mg/kg/injection, schedule: Q07DX005 (ip), vehicle: saline
  T/C: 62 % of control
endpoint: median tumor weight (est.), dose: 28.0 mg/kg/injection, schedule: Q07DX005 (ip), vehicle: saline
  T/C: 83 % of control
endpoint: median tumor weight (est.), dose: 42.0 mg/kg/injection, schedule: Q07DX005 (ip), vehicle: saline
  T/C: 118 % of control
endpoint: median tumor weight (est.), dose: 63.0 mg/kg/injection, schedule: Q07DX005 (ip), vehicle: saline
  T/C: 67 % of control

## c1cc(-c2cc3ccc(C4=NCCN4)cc3[nH]2)ccc1C1=NCCN1
endpoint: median tumor weight (est.), dose: 6.25 mg/kg/injection, schedule: Q07DX005 (ip), vehicle: suspension in saline
  T/C: 103 % of control
endpoint: median tumor weight (est.), dose: 12.5 mg/kg/injection, schedule: Q07DX005 (ip), vehicle: suspension in saline
  T/C: 60 % of control
[1]
  T/C: 45 % of control
endpoint: median tumor weight (est.), dose: 25.0 mg/kg/injection, schedule: Q07DX005 (ip), vehicle: suspension in saline
  T/C: 164 % of control
endpoint: median tumor weight change, dose: 62.0 mg/kg/injection, schedule: Q01DX001 (ip), vehicle: suspension in saline
  T/C: 99 % of control

## CCC12C[N+]3([O-])CCc4c([nH]c5ccccc45)C(C(=O)OC)(c4cc5c(cc4OC)N(C)C4C(O)(C(=O)OC)C(OC(C)=O)C6(CC)C=CCN7CCC54C76)CC(C3)C1O2 (stereo not given)
endpoint: median tumor weight change, dose: 6.25 mg/kg/injection, schedule: Q01DX001 (ip), vehicle: water
  T/C: 199 % of control
endpoint: median tumor weight change, dose: 12.5 mg/kg/injection, schedule: Q01DX001 (ip), vehicle: water
  T/C: 73 % of control
endpoint: median tumor weight change, dose: 25.0 mg/kg/injection, schedule: Q01DX001 (ip), vehicle: water
  T/C: 87 % of control
endpoint: median tumor weight change, dose: 50.0 mg/kg/injection, schedule: Q01DX001 (ip), vehicle: water
  T/C: 92 % of control
endpoint: median tumor weight change, dose: 100.0 mg/kg/injection, schedule: Q01DX001 (ip), vehicle: water
  T/C: 81 % of control

## Oc1ccc(CCl)c2cccnc12
endpoint: median tumor weight change, dose: 62.5 mg/kg/injection, schedule: Q01DX001 (ip), vehicle: saline
  T/C: 54 % of control
endpoint: median tumor weight change, dose: 125.0 mg/kg/injection, schedule: Q01DX001 (ip), vehicle: saline
  T/C: 78 % of control

## O=CC(NC(=O)N(CCCl)N=O)C(O)C(O)C(O)CO (stereo not given)
endpoint: mean tumor weight, dose: 1.5 mg/kg/injection, schedule: Q02DX008 (ip), vehicle: saline
  T/C: 58 % of control
endpoint: mean tumor weight, dose: 3.0 mg/kg/injection, schedule: Q02DX008 (ip), vehicle: saline
  T/C: 24 % of control
endpoint: mean tumor weight, dose: 6.0 mg/kg/injection, schedule: Q02DX008 (ip), vehicle: saline
  T/C: 31 % of control
endpoint: median tumor weight (est.), dose: 1.5 mg/kg/injection, schedule: Q07DX005 (ip), vehicle: saline
  T/C: 175 % of control
endpoint: median tumor weight (est.), dose: 3.0 mg/kg/injection, schedule: Q07DX005 (ip), vehicle: saline
  T/C: 107 % of control
endpoint: median tumor weight (est.), dose: 6.0 mg/kg/injection, schedule: Q07DX005 (ip), vehicle: saline
  T/C: 53 % of control
endpoint: median tumor weight (est.), dose: 12.0 mg/kg/injection, schedule: Q07DX005 (ip), vehicle: saline
  T/C: 14 % of control
endpoint: median tumor weight (est.), dose: 24.0 mg/kg/injection, schedule: Q07DX005 (ip), vehicle: saline
  T/C: 13 % of control

## COc1cc2oc(=O)ccc2cc1[C@@H]1OC(=O)C2(C)O[C@@H]12 (stereo not given in full)
endpoint: median tumor weight (est.), dose: 0.94 mg/kg/injection, schedule: Q07DX005 (ip), vehicle: water
  T/C: 174 % of control
endpoint: median tumor weight (est.), dose: 3.75 mg/kg/injection, schedule: Q07DX005 (ip), vehicle: water
  T/C: 101 % of control
endpoint: median tumor weight (est.), dose: 7.5 mg/kg/injection, schedule: Q07DX005 (ip), vehicle: water
  T/C: 105 % of control
endpoint: median tumor weight (est.), dose: 15.0 mg/kg/injection, schedule: Q07DX005 (ip), vehicle: water
  T/C: 124 % of control

## NCCc1ccc(O)c(O)c1
endpoint: mean tumor weight, dose: 300.0 mg/kg/injection, schedule: Q07DX005 (ip), vehicle: saline
  T/C: 39 % of control
endpoint: mean tumor weight, dose: 600.0 mg/kg/injection, schedule: Q07DX005 (ip), vehicle: saline
  T/C: 87 % of control
[1]
  T/C: 62 % of control
endpoint: median tumor weight (est.), dose: 200.0 mg/kg/injection, schedule: Q07DX005 (ip), vehicle: saline
  T/C: 83 % of control
endpoint: median tumor weight (est.), dose: 300.0 mg/kg/injection, schedule: Q07DX005 (ip), vehicle: saline
  T/C: 74 % of control

## CC1=C(/C=C/C(C)=C/C=C/C(C)=C/CO)C(C)(C)CCC1
endpoint: median tumor weight (est.), dose: 8.0 mg/kg/injection, schedule: Q07DX005 (ip), vehicle: saline with Tween-80
  T/C: 195 % of control
endpoint: median tumor weight (est.), dose: 32.0 mg/kg/injection, schedule: Q07DX005 (ip), vehicle: saline with Tween-80
  T/C: 118 % of control

## CCC1=C[C@H]2CN(CCc3c([nH]c4ccccc34)[C@@](C(=O)OC)(c3cc4c(cc3OC)N(C)[C@H]3[C@@](O)(C(=O)OC)[C@H](OC(C)=O)[C@]5(CC)C=CCN6CC[C@]43[C@@H]65)C2)C1
endpoint: median tumor weight change, dose: 4.0 mg/kg/injection, schedule: Q01DX001 (ip), vehicle: water
  T/C: 100 % of control
endpoint: median tumor weight change, dose: 8.0 mg/kg/injection, schedule: Q01DX001 (ip), vehicle: water
  T/C: 36 % of control

## CCOC1=Cc2c(oc3c(C(C)(C)C)cc(OCC)cc23)OC(C(C)(C)C)=C1
endpoint: median tumor weight change, dose: 15.6 mg/kg/injection, schedule: Q01DX001 (ip), vehicle: saline with Tween-80
  T/C: 114 % of control
endpoint: median tumor weight change, dose: 15.62 mg/kg/injection, schedule: Q01DX001 (ip), vehicle: saline with Tween-80
  T/C: 98 % of control
[2]
  T/C: 85 % of control and 106 % of control

## Nc1nc(Br)nc2c1ncn2C1CC(O)C(CO)O1 (stereo not given)
endpoint: median tumor weight change, dose: 7.5 mg/kg/injection, schedule: Q03HX009 (ip), vehicle: saline
  T/C: 112 % of control
endpoint: median tumor weight change, dose: 15.0 mg/kg/injection, schedule: Q03HX009 (ip), vehicle: saline
  T/C: 99 % of control
endpoint: median tumor weight change, dose: 30.0 mg/kg/injection, schedule: Q03HX009 (ip), vehicle: saline
  T/C: 51 % of control
endpoint: median tumor weight change, dose: 60.0 mg/kg/injection, schedule: Q03HX009 (ip), vehicle: saline
  T/C: 54 % of control
endpoint: median tumor weight change, dose: 120.0 mg/kg/injection, schedule: Q03HX009 (ip), vehicle: saline
  T/C: 31 % of control

## CN(C)P(=O)(Oc1ccccc1)N(C)C
[2]
  T/C: 86 % of control
endpoint: median tumor weight change, dose: 125.0 mg/kg/injection, schedule: Q01DX001 (ip), vehicle: saline with Tween-80
  T/C: 63 % of control
endpoint: median tumor weight change, dose: 500.0 mg/kg/injection, schedule: Q01DX001 (ip), vehicle: saline with Tween-80
  T/C: 94 % of control

## CC[N+](CC)(CC)CC
endpoint: median tumor weight (est.), dose: 0.78 mg/kg/injection, schedule: Q07DX005 (ip), vehicle: saline with Tween-80
  T/C: 96 % of control
[3]
  T/C: 71 % of control and 84 % of control
[4]
  T/C: 21 % of control and 38 % of control
[5]
  T/C: 10 % of control and 27 % of control
endpoint: median tumor weight change, dose: 5.0 mg/kg/injection, schedule: Q01DX001 (ip), vehicle: saline with Tween-80
  T/C: 38 % of control
endpoint: median tumor weight change, dose: 10.0 mg/kg/injection, schedule: Q01DX001 (ip), vehicle: saline with Tween-80
  T/C: 20 % of control
endpoint: median tumor weight change, dose: 12.0 mg/kg/injection, schedule: Q01DX001 (ip), vehicle: saline with Tween-80
  T/C: 54 % of control and 61 % of control
endpoint: median tumor weight change, dose: 15.0 mg/kg/injection, schedule: Q01DX001 (ip), vehicle: saline with Tween-80
  T/C: 86 % of control
endpoint: median tumor weight change, dose: 20.0 mg/kg/injection, schedule: Q01DX001 (ip), vehicle: saline with Tween-80
  T/C: 22 % of control
endpoint: median tumor weight change, dose: 30.0 mg/kg/injection, schedule: Q01DX001 (ip), vehicle: saline with Tween-80
  T/C: 15 % of control
endpoint: median tumor weight change, dose: 40.0 mg/kg/injection, schedule: Q01DX001 (ip), vehicle: saline with Tween-80
  T/C: 8 % of control

## Cc1cc(N(CC(C)Br)CC(C)Br)ccc1N=Nc1ccccc1C(=O)O (stereo not given)
[3]
  T/C: 79 % of control
[4]
  T/C: 94 % of control
[5]
  T/C: 68 % of control
endpoint: median tumor weight (est.), dose: 12.5 mg/kg/injection, schedule: Q07DX005 (ip), vehicle: saline with Tween-80
  T/C: 47 % of control
endpoint: median tumor weight (est.), dose: 25.0 mg/kg/injection, schedule: Q07DX005 (ip), vehicle: saline with Tween-80
  T/C: 23 % of control
